Laboratory results from ChEMBL document CHEMBL4256941, “Histone demethylase inhibitors” (2016).

Key:
[1] = biological target: Lysine-specific demethylase 5B (Homo sapiens, UniProt Q9UGL1); assay: Inhibition of recombinant human N-terminal His-FLAG tagged JARID1B (2 to 751 residues) expressed in baculovirus infected sf9 cells using H3K4me3-biotin peptide as substrate after 30 mins in presence of alpha-ketoglutaric acid by LANCE TR-FRET assay
[2] = biological target: Lysine-specific demethylase 5A (Homo sapiens, UniProt P29375); assay: Inhibition of recombinant human C-terminal FLAG-tagged JARID1A (1 to 1090 residues) expressed in baculovirus infected sf9 cells using H3K4me3-biotin peptide as substrate after 30 mins in presence of alpha-ketoglutaric acid by LANCE TR-FRET assay
[3] = biological target: T1, Lysine-specific demethylase 4C (Homo sapiens, UniProt Q9H3R0); assay: Inhibition of recombinant human N-terminal GST-tagged JMJD2C (2 to 372 residues) expressed in baculovirus infected sf9 cells using H3K9me3-biotin peptide as substrate after 30 mins in presence of alpha-ketoglutaric acid by LANCE TR-FRET assay
T1 sequence (Q9H3R0 whole entry): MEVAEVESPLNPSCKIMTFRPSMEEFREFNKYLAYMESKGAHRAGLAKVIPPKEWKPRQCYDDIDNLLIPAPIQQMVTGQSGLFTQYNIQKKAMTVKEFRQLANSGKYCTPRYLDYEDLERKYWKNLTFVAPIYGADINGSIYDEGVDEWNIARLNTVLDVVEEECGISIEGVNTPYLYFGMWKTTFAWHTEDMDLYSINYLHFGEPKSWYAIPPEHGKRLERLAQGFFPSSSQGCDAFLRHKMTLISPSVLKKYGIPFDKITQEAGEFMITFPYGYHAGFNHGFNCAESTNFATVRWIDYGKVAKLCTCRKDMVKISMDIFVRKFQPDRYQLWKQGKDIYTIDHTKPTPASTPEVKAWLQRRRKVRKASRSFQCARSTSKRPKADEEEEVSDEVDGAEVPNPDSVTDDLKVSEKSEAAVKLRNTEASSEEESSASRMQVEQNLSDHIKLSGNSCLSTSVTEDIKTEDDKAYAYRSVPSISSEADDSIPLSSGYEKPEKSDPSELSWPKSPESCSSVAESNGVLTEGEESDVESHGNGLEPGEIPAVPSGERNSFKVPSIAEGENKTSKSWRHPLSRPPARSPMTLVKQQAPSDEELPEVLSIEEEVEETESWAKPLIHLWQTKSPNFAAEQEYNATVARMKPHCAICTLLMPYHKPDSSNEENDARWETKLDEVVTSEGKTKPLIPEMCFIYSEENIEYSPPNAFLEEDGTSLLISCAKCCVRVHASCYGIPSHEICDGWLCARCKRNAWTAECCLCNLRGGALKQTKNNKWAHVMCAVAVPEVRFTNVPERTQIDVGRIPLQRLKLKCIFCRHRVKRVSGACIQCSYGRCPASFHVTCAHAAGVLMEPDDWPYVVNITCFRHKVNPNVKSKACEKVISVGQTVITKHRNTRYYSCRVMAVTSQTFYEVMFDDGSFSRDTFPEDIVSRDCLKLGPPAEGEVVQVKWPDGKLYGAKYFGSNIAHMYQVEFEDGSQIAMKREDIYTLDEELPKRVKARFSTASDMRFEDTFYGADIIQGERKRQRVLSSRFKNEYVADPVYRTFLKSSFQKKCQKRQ

Sequence of Lysine-specific demethylase 5B (Q9UGL1 whole entry, the tested form may be a part): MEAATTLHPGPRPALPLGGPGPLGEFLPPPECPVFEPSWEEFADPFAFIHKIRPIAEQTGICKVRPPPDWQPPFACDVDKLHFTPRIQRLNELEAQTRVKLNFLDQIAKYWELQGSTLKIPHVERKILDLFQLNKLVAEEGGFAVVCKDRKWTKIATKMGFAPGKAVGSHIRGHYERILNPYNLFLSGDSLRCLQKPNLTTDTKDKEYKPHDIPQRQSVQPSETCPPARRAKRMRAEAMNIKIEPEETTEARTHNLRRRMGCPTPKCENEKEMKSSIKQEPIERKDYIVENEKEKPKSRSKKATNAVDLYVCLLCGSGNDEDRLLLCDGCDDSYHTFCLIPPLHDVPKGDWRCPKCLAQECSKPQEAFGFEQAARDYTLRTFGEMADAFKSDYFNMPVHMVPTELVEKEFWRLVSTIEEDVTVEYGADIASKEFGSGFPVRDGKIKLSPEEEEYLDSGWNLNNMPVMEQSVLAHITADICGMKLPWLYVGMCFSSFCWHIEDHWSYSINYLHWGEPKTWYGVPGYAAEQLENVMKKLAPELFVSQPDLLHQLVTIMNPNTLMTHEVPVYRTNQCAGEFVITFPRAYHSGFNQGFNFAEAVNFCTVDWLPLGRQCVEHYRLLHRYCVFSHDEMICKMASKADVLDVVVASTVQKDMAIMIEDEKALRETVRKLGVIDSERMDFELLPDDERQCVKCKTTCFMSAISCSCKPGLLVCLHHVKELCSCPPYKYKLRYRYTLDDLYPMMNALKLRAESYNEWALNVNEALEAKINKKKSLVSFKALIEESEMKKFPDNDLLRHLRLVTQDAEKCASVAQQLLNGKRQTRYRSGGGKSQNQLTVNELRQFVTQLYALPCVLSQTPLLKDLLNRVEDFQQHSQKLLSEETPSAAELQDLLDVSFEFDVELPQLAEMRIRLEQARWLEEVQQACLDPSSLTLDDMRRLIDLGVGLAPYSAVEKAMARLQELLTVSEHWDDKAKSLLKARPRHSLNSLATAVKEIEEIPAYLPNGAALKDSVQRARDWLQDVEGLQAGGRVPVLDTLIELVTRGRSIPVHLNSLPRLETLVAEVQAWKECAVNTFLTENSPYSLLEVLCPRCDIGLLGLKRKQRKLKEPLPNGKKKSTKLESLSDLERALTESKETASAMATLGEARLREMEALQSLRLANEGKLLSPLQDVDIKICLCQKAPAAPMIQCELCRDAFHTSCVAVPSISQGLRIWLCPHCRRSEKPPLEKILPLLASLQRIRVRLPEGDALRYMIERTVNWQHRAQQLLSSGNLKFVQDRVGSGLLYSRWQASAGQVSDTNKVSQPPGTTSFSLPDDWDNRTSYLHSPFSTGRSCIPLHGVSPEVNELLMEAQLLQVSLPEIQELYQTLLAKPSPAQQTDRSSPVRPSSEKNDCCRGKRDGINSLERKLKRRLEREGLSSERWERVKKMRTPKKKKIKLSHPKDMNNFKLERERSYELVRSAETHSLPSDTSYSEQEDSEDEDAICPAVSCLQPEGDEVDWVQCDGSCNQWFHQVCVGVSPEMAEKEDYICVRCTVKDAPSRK
Sequence of Lysine-specific demethylase 5A (P29375 whole entry, the tested form may be a part): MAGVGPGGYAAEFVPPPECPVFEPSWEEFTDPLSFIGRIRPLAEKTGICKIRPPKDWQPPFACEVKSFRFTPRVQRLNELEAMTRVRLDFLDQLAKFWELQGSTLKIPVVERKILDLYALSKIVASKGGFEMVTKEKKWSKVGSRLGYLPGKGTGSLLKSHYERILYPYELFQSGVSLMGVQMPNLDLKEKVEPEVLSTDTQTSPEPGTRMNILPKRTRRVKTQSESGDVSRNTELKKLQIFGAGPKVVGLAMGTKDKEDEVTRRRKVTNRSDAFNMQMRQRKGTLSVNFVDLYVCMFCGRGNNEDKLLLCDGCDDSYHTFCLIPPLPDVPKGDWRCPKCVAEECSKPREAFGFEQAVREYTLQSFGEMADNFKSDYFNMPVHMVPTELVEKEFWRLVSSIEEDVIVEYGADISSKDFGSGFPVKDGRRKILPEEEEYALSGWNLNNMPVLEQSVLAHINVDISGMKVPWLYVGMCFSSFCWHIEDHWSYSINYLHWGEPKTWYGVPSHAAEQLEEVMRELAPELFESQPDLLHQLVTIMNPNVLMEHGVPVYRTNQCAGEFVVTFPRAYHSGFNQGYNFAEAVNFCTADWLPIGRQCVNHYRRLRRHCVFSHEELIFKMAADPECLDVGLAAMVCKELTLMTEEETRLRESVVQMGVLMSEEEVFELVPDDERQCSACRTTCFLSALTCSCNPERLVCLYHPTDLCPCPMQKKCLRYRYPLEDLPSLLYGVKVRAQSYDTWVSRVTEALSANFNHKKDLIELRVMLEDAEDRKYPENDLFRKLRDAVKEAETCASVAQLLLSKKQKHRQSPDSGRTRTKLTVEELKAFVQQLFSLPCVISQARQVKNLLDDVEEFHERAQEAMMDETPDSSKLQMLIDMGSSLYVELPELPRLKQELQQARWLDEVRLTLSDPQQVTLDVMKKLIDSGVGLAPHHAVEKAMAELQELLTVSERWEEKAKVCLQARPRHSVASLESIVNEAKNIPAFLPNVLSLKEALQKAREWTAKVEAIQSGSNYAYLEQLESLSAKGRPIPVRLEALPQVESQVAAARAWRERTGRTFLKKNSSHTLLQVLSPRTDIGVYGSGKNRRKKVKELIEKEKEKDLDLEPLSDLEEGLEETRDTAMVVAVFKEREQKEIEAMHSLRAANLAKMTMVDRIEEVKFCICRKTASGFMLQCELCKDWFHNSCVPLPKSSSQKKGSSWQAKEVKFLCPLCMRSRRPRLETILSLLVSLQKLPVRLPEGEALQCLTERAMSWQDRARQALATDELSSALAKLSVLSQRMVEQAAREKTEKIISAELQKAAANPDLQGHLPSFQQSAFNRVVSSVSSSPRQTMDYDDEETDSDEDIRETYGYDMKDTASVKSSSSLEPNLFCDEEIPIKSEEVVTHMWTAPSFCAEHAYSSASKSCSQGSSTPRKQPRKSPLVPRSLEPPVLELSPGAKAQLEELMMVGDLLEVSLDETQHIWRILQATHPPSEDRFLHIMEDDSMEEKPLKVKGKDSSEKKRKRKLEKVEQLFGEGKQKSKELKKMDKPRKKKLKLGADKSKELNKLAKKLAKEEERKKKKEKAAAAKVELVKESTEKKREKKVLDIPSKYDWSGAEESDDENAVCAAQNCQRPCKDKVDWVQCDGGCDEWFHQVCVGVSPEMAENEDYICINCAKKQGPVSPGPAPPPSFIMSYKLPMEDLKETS

**Q.** With `O=C(O)c1ccnc(-n2nccc2OCc2ccc(F)c(OCc3ccc(F)cc3)c2)c1` as the compound, how does the IC50 [1] read?
**A.** ≤ 100 nM

**Q.** And the IC50 [2]?
**A.** ≤ 100 nM

**Q.** And the IC50 [3]?
**A.** 100 to 1000 nM
